{"source": "patent US6664271B1", "about": "“Immunopotentiator agents” (Eli Lilly and Company, priority 1999, dated 2003)", "tested_on": "chicken leukocytes", "assay": "cells", "type": "cell-based", "method": "Various compounds of Formula I were evaluated for in vitro T-lymphocyte blastogenic activity with chicken leukocytes according to the steps described in the following procedure:\n(a) Exsanguination step. The leukocytes were obtained from 3-6 week old Hubbard/Peterson broiler chickens. Initially, the chickens were rendered unconscious in a CO2 chamber. The chickens were then exsanguinated via cardiac puncture. In the exsanguination procedure, a syringe was connected to a needle, and the needle was inserted into the area at the base of the neck under the “V” formed by the breast and sternum. After the needle was properly inserted, continuous vacuum was applied to a syringe (connected to the needle) by pulling back on the plunger. It is important to promptly carry out this withdrawal action, because there is only a 10-15 seconds time period after the blood has starting flowing into the syringe before the blood coagulates, and becomes unusable. As soon as the syringe is full (or prior to complete filling if too much time has elapsed such that the blood begins to coagulate), the whole uncoagulated blood is transferred to a tube having the anticoagulant EDTA therein. The tube is then rotated to mix the whole blood and the EDTA. Alternatively, the whole blood can be withdrawn directly into a vacuum container already having EDTA therein, rather than into a syringe.\n(b) Leukocyte isolation step. Numerous methods for isolating leukocytes from (uncoagulated) whole blood are known in the art. In a preferred method, the sterile whole blood was combined with methylcellulose (1.5:1). Any blood containing clots was discarded. The mixture was centrifuged at 30×g for ten minutes (300 rpm on Beckman GS-6R centrifuge). The top layer (leukocytes in supernatant) was decanted into a sterile 50 ml conical tube, while taking care to prevent contamination of the sample by red blood cells. The decanted layer was then centrifuged at 200×g for ten minutes (1500 rpm on the Beckman GS-6R centrifuge). The supernatant liquid was discarded, and the resulting cell “pellet” was retained.\nThe cells were then washed in a solution containing 10 ml PBS (phosphate buffered saline) and Gentamycin (gentamicin sulfate) at a concentration of 50 μg/ml. This solution was centrifuged at 100×g (1000 rpm on the Beckman centrifuge) for five minutes, and the supernatant liquid was discarded. The washing step (including the centrifuging at 100×g) was repeated to ensure complete removal of the methylcellulose. The use of media such as DMEM ([…]) was avoided in the washing steps, since such media may cause agglutination of the white blood cells. Finally, the cells were then suspended in an appropriate media, such as RPMI 1640 tissue cell culture medium, supplemented with phenol red, NaHCO3, and L-Glutamide. Supplemented RPMI 1640 is available from Sigma-Aldrich Chemical Co.\n(c) Cell counting and cell viability step. The cells were counted and checked for viability using the Trypan Blue method of exclusion. 0.1 ml of the cell suspension was placed in a 4-5 ml small culture tube along with 0.7 ml HBSS (Hank's Buffered Saline Solution), available from Sigma-Aldrich, and 0.2 ml of a 0.4% solution of aqueous Trypan Blue stain, available from GIBCO BRL, of Grand Island, N.Y. The components were mixed thoroughly but gently, and allowed to sit for 5 minutes (no longer than 15 minutes). The components should not be exposed to the stain for extended periods of time, because such extended exposure may permit viable cells, as well as non-viable cells, to take up dye.\nA cover slip was placed on a Bright Line hemacytometer, available from Howser Scientific, and 10 μl of the mixture from the tube was transferred to each chamber. Non-viable cells appear blue under a microscope. The viable cells in one of the 16-square corners of the hemacytometer were then counted. […]"}
{"compound": "CCOC(=O)[C@H]1CCCN(C(=O)Cc2cccs2)C1", "note": "[Example 30, (S)-Ethyl 1-(2-Thiopheneacetyl)-3-piperidinecarboxylate]", "values": [{"measurement": "minimal effective concentration", "setting": "Gallus gallus, Leukocyte, chicken leukocytes, read at 72 hours, read-out: MSC (Minimum Stimulatory Concentration)", "value": 0.1, "unit": "µg/mL"}, {"measurement": "MTC (Maximum Tolerable Concentration prior to causing cytotoxicity)", "setting": "Hubbard/Peterson broiler, chicken, 72 h", "value": 10, "unit": "µg/mL"}]}
